# Assay results: patent US20180169045A1, “AMINO ACID COMPOSITIONS AND METHODS FOR THE TREATMENT OF LIVER DISEASES” (AXCELLA HEALTH INC., priority 2016, published 2018)
# Experiments:
# [1] = tested on: Primary human hepatic stellate cells; experiment: TNFα-induced IL-6 secretion in primary human hepatic stellate cells (ELISA); format: cell-based; conditions: for IL-6 cytokine secretion, in words: primary human hepatic stellate cells from two donors, 3 ng/mL TNFα, 12 h
# Method: Primary human hepatic stellate cells were obtained from Samsara Sciences based on the following criteria for selecting donors: adult age (between 18 and 50 years), normal BMI (>18.5 and <25), and absence of confounding liver disease. Primary human hepatic stellate cells grown in Complete HSC Medium to ˜80% confluence in T75 or T150 flasks below passage 10 were seeded into sterile, collagen I coated, 96-well optical plastic microplates (ThermoScientific, 152036) at 4000 cells per well ([…]) and incubated for 6 hours at 37° C., 5% CO2 in a humidified incubator.
# After 6 hours, plates were removed from the incubator and the medium gently pipetted off and washed once with 150 μL per well DPBS. The DPBS was removed and the pretreatment medium (±single amino acid dropout, 1×HMDB DMEM+3% dialyzed FBS+0.2% Primocin, ±supplemental amino acid dose; see experiment for medium composition) was applied to the cells at 150 μL per well. Plates were returned to the incubator overnight, ˜14-15 hours.
# After overnight pretreatment, the medium was removed from the cells, and the same pretreatment medium, now supplemented with 3 ng/mL TNFα is applied. Each plate contained 3 ng/mL TNFα in 1× human plasma amino acid (HMDB or PAA) concentration medium, 0 ng/mL in 1×HMDB, and 3 ng/mL TNFα+50 nM Bengamide in 1×HMDB to serve as controls. Plates were incubated for 12 hours at 37° C., 5% CO2.
# After 12 hour stimulus with TNFα, supernatant was removed and frozen at −80° C. in two separate aliquots. Plates were washed gently once with DPBS and 100 μL per well of 1×HMDB DMEM+3% dialyzed FBS+0.2% Primocin+10% CCK-8 viability reagent (Dojindo). Plates were incubated for 1 hour at 37° C., 5% CO2.
# After 1 hour of incubation, viability was measured on the Synergy plate reader (Absorbance at 977 (test), 900 (reference), and 450 (CCK8) nm). Immediately, the medium was removed and the plates were fixed with 70 μL per well 4% paraformaldehyde in PBS at room temperature for 20 minutes, followed by two 150 μL PBS washes, and stored with 100 μL per well PBS at 4° C. until immunofluorescence staining.
# Human CCL2/MCP1 and Human IL-6 were measured by ELISA (Human […] DuoSet ELISA, R&D Systems; Human IL-6 DuoSet ELISA, R&D Systems) at 1/5 and 1/20 dilution in 1× Reagent Diluent (Reagent Ancillary Kit 2, R&D Systems). Data were normalized to the specific per well cell density determined by Hoechst stained nuclei count.
# [2] = tested on: Primary human PMBC derived macrophages; experiment: LPS-induced IL-6 secretion in primary human monocyte-derived macrophages (ELISA); format: cell-based; design: IL-6 Measurements, Mean: unit not given here; conditions: for IL-6 Measurements, Mean: Donor 1, baseline subtracted values; for IL-6 Measurements Mean (baseline subtracted): Donor 3, LPS 0.15 ng/mL; for LPS-induced IL-6 secretion, in words: primary human monocyte-derived macrophages
# Method: Isolation of Peripheral Blood Mononuclear Cell (PBMC) Unpurified buffy coats (Research Blood Components) were carefully poured into 50 mL centrifuge tubes and diluted with room temperature Dulbecco's Phosphate Buffered Saline (dPBS) with Calcium and Magnesium (Gibco). Diluted buffy coats were further divided into four total 50 mL centrifuge tubes at 20 mL per tube. Lymphocyte Separation Medium (Corning) was carefully pipetted to the bottom of each centrifuge tube. Mixtures were centrifuged at 850×g for 32 minutes at 20° C. with 0 deceleration and acceleration.
# CD14+ cells were selected using EasySep™ Human CD14 Positive Selection Kit II ([…] Technologies). Cells were resuspended in cold EasySep™ Buffer ([…] Technologies) at 1×10^8 cells/mL. A total of 100 uL/mL EasySep™ Human CD14 Positive Selection Cocktail II was added to the cell suspension, mixed, and incubated at room temperature for 10 minutes. A total of 100 uL/mL RapidSpheres were added to the mixture and incubated at room temperature for 3 minutes after mixing, then RoboSep buffer was added to bring up the total volume to 10 mL. The mixture in a 15 mL tube was placed in magnet and incubated at room temperature for 3 minutes. Supernatant was discarded and 10 mL fresh EasySep™ buffer was added to 15 mL tube. The addition of RoboSep buffer, mixing, and discarding of supernatant was repeated two more times.
# Negative and positive fractions were centrifuged at 490×g for 5 minutes at 20° C. with acceleration of 9, deceleration of 9, and resuspended in DMEM (Gibco) and 10% Heat Inactivated Fetal Bovine Serum (Atlanta Bio) and Penicillin/Streptomycin. Cells were counted and centrifuged again at 490×g for 5 minutes at 20° C. with acceleration of 9, deceleration of 9. After centrifugation, cell were resuspended in DMEM (Gibco) and 10% Heat Inactivated Fetal Bovine Serum (Atlanta Bio) and Penicillin/Streptomycin containing 500 U/mL […] and plated at 1-2×10^6 cells/mL on 10 cm tissue culture plates. Cells were kept in 37° C., 5% CO2 in between feedings/harvest.
# Cells were fed every 3-4 days by removing media and unattached cells, centrifuging at 490×g for 5 minutes at 20 C with acceleration of 9, deceleration of 9, and resuspending in fresh DMEM (Gibco) and 10% Heat Inactivated Fetal Bovine Serum (Atlanta Bio) and Penicillin/Streptomycincontaining 500 U/mL GM-CSF. Resuspended cells were seeded back onto 10 cm tissue culture plates and incubated at 37° C., 5% CO2.
# After complete cell attachment, culture supernatant was removed and cultures were washed 1× with 5 mL PBS. A total of 3 mL room temperature Cellstripper was added and cultures were incubated at 37° C., 5% CO2 for approximately 10 minutes until cells were rounded and beginning to detach. Cell scraper was used to completely detach cells from plate. Collected cell were spun down at 490 g for 5 min at room temperature and resuspended in 10% DMSO in Heat Inactivated Fetal Bovine Serum and immediately frozen in −80 C.
# Primary human PMBC derived macrophages were seeded on day 0 at 3.0E4 cells per well in 96-well microplates (ThermoFisher) in Dulbecco's Modified Eagle Medium (DMEM) (Gibco) supplemented with penicillin-streptomycin (Hyclone) and 10% heat inactivated fetal bovine serum (HI-FBS) (Atlanta Bio) and incubated overnight at 37° C., 5% CO2. On day 1, cells were washed once with 150 uL per well DPBS (Gibco) and treated with 75 uL of: • a. Amino acid free DMEM (US Biologicals) containing a defined custom amino acid concentration based on the mean physiological concentrations in blood based on values published in the Human Metabolome Database (HMDB), with 6 mM glucose, 1 mM sodium pyruvate, 10 mM HEPES, 0.2% primocin (InVivoGen); or • b. The same medium described above with one amino acid at various concentrations including complete dropout. […]
smiles,measurement,setting,value
"NC(=O)CC[C@H](N)C(=O)O [Glutamine, L-Glutamine]","Fold Change IL-6 Secretion Normalized Per Cell, Mean","[1]; donor 1, Conc. 749 μM",0.6320
same,"Fold Change IL-6 Secretion Normalized Per Cell, Mean","[1]; donor 1, Conc. 3747 μM",0.5460
same,"Fold Change IL-6 Secretion Normalized Per Cell, Mean","[1]; donor 1, Conc. 11242 μM",0.5136
same,"Fold Change IL-6 Secretion Normalized Per Cell, Mean","[1]; donor 1, Conc. 22484 μM",0.5138
same,"Fold Change IL-6 Secretion Normalized Per Cell, Mean","[1]; donor 2, Conc. 749 μM",0.7673
same,"Fold Change IL-6 Secretion Normalized Per Cell, Mean","[1]; donor 2, Conc. 11242 μM",0.6478
same,"Fold Change IL-6 Secretion Normalized Per Cell, Mean","[1]; donor 2, Conc. 22484 μM",0.5993
same,"IL-6 cytokine secretion, in words",[1],significantly reduced IL-6 secretion in both donors
same,"IL-6 Measurements, Mean",[2]; Conc. 3747 μM,291.5443
same,"IL-6 Measurements, Mean",[2]; Conc. 11242 μM,397.1745
same,"IL-6 Measurements, Mean",[2]; Conc. 22484 μM,440.1437
same,IL-6 Measurements Mean (baseline subtracted),[2]; Conc. 749 μM (baseline),3.79E−14
same,IL-6 Measurements Mean (baseline subtracted),[2]; Conc. 3747 μM,25.35
same,IL-6 Measurements Mean (baseline subtracted),[2]; Conc. 11242 μM,98.4903
same,IL-6 Measurements Mean (baseline subtracted),[2]; Conc. 22484 μM,108.5158
same,"LPS-induced IL-6 secretion, in words","[2]; Donor 1, 0.15 ng/mL LPS",increased
same,"LPS-induced IL-6 secretion, in words","[2]; Donor 2, 0.15 ng/mL LPS",increased
same,"LPS-induced IL-6 secretion, in words","[2]; Donor 3, 0.15 ng/mL LPS",significantly increased
"CC[C@H](C)[C@H](N)C(=O)O [Isoleucine, L-Isoleucine]","Fold Change IL-6 Secretion Normalized Per Cell, Mean","[1]; donor 1, Conc. 1328 μM",1.0233
same,"Fold Change IL-6 Secretion Normalized Per Cell, Mean","[1]; donor 1, Conc. 3320 μM",1.1156
same,"Fold Change IL-6 Secretion Normalized Per Cell, Mean","[1]; donor 1, Conc. 6639 μM",1.0859
same,"Fold Change IL-6 Secretion Normalized Per Cell, Mean","[1]; donor 2, Conc. 1328 μM",1.1020
same,"Fold Change IL-6 Secretion Normalized Per Cell, Mean","[1]; donor 2, Conc. 3320 μM",0.9096
same,"Fold Change IL-6 Secretion Normalized Per Cell, Mean","[1]; donor 2, Conc. 6639 μM",1.1648
same,"IL-6 cytokine secretion, in words",[1],no significant effect
same,"IL-6 Measurements, Mean",[2]; Conc. 1328 μM,25.98
same,"IL-6 Measurements, Mean",[2]; Conc. 3320 μM,−15.8843
same,"IL-6 Measurements, Mean",[2]; Conc. 6639 μM,−218.332
same,IL-6 Measurements Mean (baseline subtracted),[2]; Conc. 66 μM (baseline),−6.69
same,IL-6 Measurements Mean (baseline subtracted),[2]; Conc. 1328 μM,−28.9897
same,IL-6 Measurements Mean (baseline subtracted),[2]; Conc. 6639 μM,−16.3663
